One assay concerns the target KAT-8 (Homo sapiens (Human), UniProt Q9H7Z6). As to the kind of experiment: KAT-8 biochemical inhibition assay (SAMDI mass spectrometry). Here is the method:
(§1) KAT-8. Enzyme assay buffer was 50 mM Tris pH 8.0, 0.002% Tween20, 0.005% bovine skin gelatin, and 1 mM dithiothreitol (DTT). For determination of IC50 values, compounds were serially diluted with 2% (v/v) DMSO in the final reaction, pre-incubating each dilution of each compound with 40 μL of assay buffer containing KAT-8 enzyme (12.5 nM final concentration). 10 μL of assay buffer containing 1 μM peptide substrate and 5 μM acetyl coenzyme A (final concentrations) was added. Reactions (50 μL total) were then carried out at 25° C. for 90 minutes. Reactions were terminated by the addition of 0.5% formic acid (final concentration), and a sample of each reaction was analyzed by SAMDI Tech, Inc. (Chicago, Ill.) using self-assembled monolayer desorption/ionization time-of-flight mass spectrometry (Mrksich, M. (2008) Mass spectrometry of self-assembled monolayers: a new tool for molecular surface science. ACS Nano 2, 7-18).

The next assay deals with KAT-5 (Homo sapiens (Human), UniProt Q92993). As to the kind of experiment: KAT-5 biochemical inhibition assay (SAMDI mass spectrometry). The method, then:
as §1, with “KAT-5. Enzyme” for “KAT-8. Enzyme”, “containing KAT-5” for “containing KAT-8”, “enzyme (9” for “enzyme (12.5”, “and 0.5” for “and 5”

The next assay has as its target KAT-6A (Homo sapiens (Human), UniProt Q92794). As to the kind of experiment: KAT-6A biochemical inhibition assay (SAMDI mass spectrometry). Here is the method: as §1, with “KAT-6A. Enzyme” for “KAT-8. Enzyme”, “containing KAT-6A” for “containing KAT-8”, “and 1” for “and 5”
For another assay, the target named is KAT-7 (Homo sapiens (Human), UniProt O95251). As to the kind of experiment: KAT-7 biochemical inhibition assay (SAMDI mass spectrometry). The method, then: as §1, with “KAT-7. Enzyme” for “KAT-8. Enzyme”, “containing KAT-7” for “containing KAT-8”, “enzyme (6” for “enzyme (12.5”, “and 2” for “and 5”, “for 120” for “for 90”
KAT-7, sequence (O95251 other isoform, or with tags, fused parts or gaps): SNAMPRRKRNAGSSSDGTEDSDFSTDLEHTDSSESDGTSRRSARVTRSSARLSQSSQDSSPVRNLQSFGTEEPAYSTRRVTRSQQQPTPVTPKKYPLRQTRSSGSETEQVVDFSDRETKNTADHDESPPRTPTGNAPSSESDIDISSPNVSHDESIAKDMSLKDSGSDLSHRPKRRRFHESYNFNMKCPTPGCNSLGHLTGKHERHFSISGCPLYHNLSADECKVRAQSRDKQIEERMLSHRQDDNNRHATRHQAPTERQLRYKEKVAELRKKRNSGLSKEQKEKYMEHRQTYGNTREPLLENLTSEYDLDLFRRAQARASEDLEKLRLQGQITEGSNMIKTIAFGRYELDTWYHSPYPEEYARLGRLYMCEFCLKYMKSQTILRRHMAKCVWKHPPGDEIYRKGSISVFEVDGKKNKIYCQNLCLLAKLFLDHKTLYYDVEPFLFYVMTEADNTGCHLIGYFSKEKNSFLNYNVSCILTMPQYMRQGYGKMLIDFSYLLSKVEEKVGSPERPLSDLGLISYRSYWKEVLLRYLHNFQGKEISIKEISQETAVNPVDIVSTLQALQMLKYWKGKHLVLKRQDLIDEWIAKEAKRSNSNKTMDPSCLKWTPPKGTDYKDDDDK

Where two headings read alike, the source gives them in different places.

KAT-6A, sequence (Q92794 other isoform, or with tags, fused parts or gaps): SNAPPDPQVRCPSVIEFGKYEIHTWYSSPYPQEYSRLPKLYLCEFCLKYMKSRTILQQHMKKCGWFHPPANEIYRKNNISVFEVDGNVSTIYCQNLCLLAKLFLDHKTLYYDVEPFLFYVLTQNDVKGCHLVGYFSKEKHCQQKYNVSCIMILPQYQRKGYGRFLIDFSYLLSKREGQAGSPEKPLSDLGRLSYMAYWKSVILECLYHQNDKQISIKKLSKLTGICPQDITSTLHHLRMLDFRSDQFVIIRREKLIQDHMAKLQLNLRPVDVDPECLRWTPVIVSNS
KAT-8, sequence (Q9H7Z6 other isoform, or with tags, fused parts or gaps): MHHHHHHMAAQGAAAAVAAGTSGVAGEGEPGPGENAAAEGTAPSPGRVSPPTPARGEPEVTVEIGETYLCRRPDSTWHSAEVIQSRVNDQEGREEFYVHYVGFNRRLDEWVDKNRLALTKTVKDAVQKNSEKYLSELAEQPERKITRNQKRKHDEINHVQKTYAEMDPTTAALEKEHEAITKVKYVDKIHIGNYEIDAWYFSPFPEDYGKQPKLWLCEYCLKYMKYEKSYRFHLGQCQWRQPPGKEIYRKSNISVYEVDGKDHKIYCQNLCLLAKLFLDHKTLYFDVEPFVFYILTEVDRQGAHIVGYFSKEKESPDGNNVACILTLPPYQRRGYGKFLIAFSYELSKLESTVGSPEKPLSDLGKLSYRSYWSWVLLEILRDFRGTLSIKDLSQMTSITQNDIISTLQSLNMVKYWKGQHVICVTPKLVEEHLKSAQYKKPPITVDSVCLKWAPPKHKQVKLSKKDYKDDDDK
KAT-5, sequence (Q92993 other isoform, or with tags, fused parts or gaps): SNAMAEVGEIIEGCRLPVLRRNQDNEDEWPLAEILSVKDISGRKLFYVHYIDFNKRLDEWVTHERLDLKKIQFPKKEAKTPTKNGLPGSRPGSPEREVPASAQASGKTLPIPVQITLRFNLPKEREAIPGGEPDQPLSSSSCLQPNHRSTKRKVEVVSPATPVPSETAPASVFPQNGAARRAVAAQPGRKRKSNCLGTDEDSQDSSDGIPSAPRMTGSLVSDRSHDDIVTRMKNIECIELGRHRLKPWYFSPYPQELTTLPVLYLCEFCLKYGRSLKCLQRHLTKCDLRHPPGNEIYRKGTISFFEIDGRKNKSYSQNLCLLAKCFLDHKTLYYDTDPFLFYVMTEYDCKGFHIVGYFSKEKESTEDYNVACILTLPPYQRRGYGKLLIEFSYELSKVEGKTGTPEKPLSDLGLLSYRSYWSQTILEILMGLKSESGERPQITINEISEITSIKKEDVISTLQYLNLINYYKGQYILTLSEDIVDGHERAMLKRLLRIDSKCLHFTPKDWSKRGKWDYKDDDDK

Consider `Cc1cc(-c2ccccc2)cc(C(=O)NNS(=O)(=O)CC2CCCN(C(=O)OC(C)(C)C)C2)c1F` (single isomer, unassigned) [B, reference compound], for which the IC50 against KAT-8 (Table 6, comparative compounds) is 50 to 100 µM; against KAT-5 (Table 6, comparative compounds), no more than 10 µM; on KAT-6A (Table 6, comparative compounds) it was no more than 10 µM; on KAT-7 (Table 6, comparative compounds) it was no more than 10 µM.

Consider `Cc1cc(-c2ccccc2)cc(C(=O)NNS(=O)(=O)CC2CCCN(C(=O)OC(C)(C)C)C2)c1F` (single isomer, unassigned) [C, reference compound], for which the IC50 on KAT-8 (Table 6, comparative compounds) was greater than 100 µM; against KAT-5 (Table 6, comparative compounds), no more than 10 µM; on KAT-6A (Table 6, comparative compounds), no more than 10 µM; against KAT-7 (Table 6, comparative compounds), 10 to 50 µM.

With `O=C(NNS(=O)(=O)CC1CCCNC1)c1cc(-c2ccccc2)cc(Cl)c1F` (stereo not shown) [A, reference compound], the IC50 on KAT-8 (Table 6, comparative compounds) was greater than 100 µM; at KAT-5 (Table 6, comparative compounds) it was 10 to 50 µM; at KAT-6A (Table 6, comparative compounds) it was 10 to 50 µM; at KAT-7 (Table 6, comparative compounds) it was 50 to 100 µM.

For the compound `Cn1cnc(-c2cc(Cl)c(F)c(C(=O)NNS(=O)(=O)CC3CCOCC3)c2)c1` [Compound I-1], the IC50 on KAT-8 was greater than 100 µM; at KAT-5, less than 10 µM; on KAT-6A it was less than 10 µM; against KAT-7, less than 10 µM.

With `Cn1cnc(-c2cc(Cl)c(F)c(C(=O)NNS(=O)(=O)C3CCCCC3)c2)c1` [Compound I-2], the IC50 was 10 to 50 µM against KAT-8, less than 10 µM at KAT-5, less than 10 µM at KAT-6A and less than 10 µM against KAT-7.

With `Cc1c(-c2cc(Cl)c(F)c(C(=O)NNS(=O)(=O)CC3CCCCC3)c2)ncn1C` [Compound I-38], the values for the IC50 against KAT-8, on KAT-5 and on KAT-7 were greater than 100 µM, less than 10 µM and less than 10 µM, respectively.

For `CC(C)S(=O)(=O)N1CCCC(CS(=O)(=O)NNC(=O)c2cc(-c3cn(C)cn3)cc(Cl)c2F)C1` (stereo not shown) [Compound I-98], the values for the IC50 at KAT-8, against KAT-5 and at KAT-7 were 10 to 50 µM, less than 10 µM and less than 10 µM, respectively.

On to `CC(=O)NC1CCCC(CS(=O)(=O)NNC(=O)c2cc(-c3cn(C)cn3)cc(Cl)c2F)C1` (stereo not shown) [Compound I-99], for which the IC50 at KAT-8 is 10 to 50 µM; on KAT-5 it was less than 10 µM; against KAT-7, less than 10 µM.

With `CNC(=O)N[C@H]1C[C@@H](CS(=O)(=O)NNC(=O)c2cc(-c3cn(C)cn3)cc(Cl)c2F)C1` [Compound I-197], the IC50 against KAT-8 fell in the range of 10 to 50 µM.

Regarding `Cn1cnc(-c2cc(Cl)c(F)c(C(=O)NNS(=O)(=O)C[C@H]3CC[C@H]4CC[C@@H]3N4C(=O)OC(C)(C)C)c2)c1` [Compound I-259], the IC50 was 10 to 50 µM against KAT-8, less than 10 µM against KAT-5 and 10 to 50 µM against KAT-6A.

In the case of `C[C@@H]1CNC[C@H]1CS(=O)(=O)NNC(=O)c1cc(-c2cn(C)cn2)cc(Cl)c1F` [Compound I-263], the 50% inhibitory concentration (IC50) against KAT-8, against KAT-5 and against KAT-6A was 10 to 50 µM each time.

Take `Cn1cnc(-c2cc(Cl)c(F)c(C(=O)NNS(=O)(=O)CC3CCCC(NC(=O)Cc4ccccn4)C3)c2)c1` (stereo not shown) [Compound I-268]: the 50% inhibitory concentration (IC50) against KAT-8 was 10 to 50 µM; against KAT-5, less than 10 µM; against KAT-6A, less than 10 µM.

On to `Cn1cnc(-c2cc(Cl)c(F)c(C(=O)NNS(=O)(=O)C[C@H]3CC[C@H](NC(=O)c4ccncc4)CC3)c2)c1` [Compound I-269], for which the IC50 is 10 to 50 µM against KAT-8, less than 10 µM at KAT-5 and less than 10 µM on KAT-6A.

For the compound `COC1CCCC(CS(=O)(=O)NNC(=O)c2cc(-c3cn(C)cn3)cc(Cl)c2F)C1` (stereo not shown) [Compound I-270], the IC50 at KAT-8 is 10 to 50 µM; on KAT-5, less than 10 µM; at KAT-6A, less than 10 µM.

In the case of `CCNC(=O)N1C[C@H](CS(=O)(=O)NNC(=O)c2cc(-c3cn(C)cn3)cc(Cl)c2F)[C@@H](C)C1` [Compound I-271], the IC50 against KAT-8, on KAT-5 and at KAT-6A was 10 to 50 µM in each case.

For `Cn1cnc(-c2cc(Cl)c(F)c(C(=O)NNS(=O)(=O)CC3CCOC3)c2)c1` (stereo not shown) [Compound I-272], the half-maximal inhibitory concentration (IC50) against KAT-8 was 10 to 50 µM; against KAT-5 it was less than 10 µM; on KAT-6A it was less than 10 µM.

Take `Cn1cnc(-c2cc(Cl)c(F)c(C(=O)NNS(=O)(=O)CC3CCCOC3)c2)c1` (stereo not shown) [Compound I-273]: the IC50 against KAT-8 is 10 to 50 µM; on KAT-5, less than 10 µM; against KAT-6A, less than 10 µM.

Take `CN(C(=O)OC(C)(C)C)C1CCCC(CS(=O)(=O)NNC(=O)c2cc(-c3cn(C)cn3)cc(Cl)c2F)C1` (stereo not shown) [Compound I-274]: the IC50 at KAT-8 was 10 to 50 µM; against KAT-5, less than 10 µM; at KAT-6A, less than 10 µM.

Consider `Cn1cnc(-c2cc(Cl)c(F)c(C(=O)NNS(=O)(=O)CC34CC5CC(CC(C5)C3)C4)c2)c1` [Compound I-275], for which the IC50 at KAT-8 is 10 to 50 µM; against KAT-5, less than 10 µM; on KAT-6A, less than 10 µM.

Turning to `Cn1cnc(-c2cc(Cl)c(F)c(C(=O)NNS(=O)(=O)CC3CCCO3)c2)c1` (stereo not shown) [Compound I-276], the results for the IC50 at KAT-8, against KAT-5 and against KAT-6A were 10 to 50 µM, less than 10 µM and less than 10 µM, respectively.

For `CC(=O)N1[C@H]2CC[C@@H](CS(=O)(=O)NNC(=O)c3cc(-c4cn(C)cn4)cc(Cl)c3F)[C@@H]1CC2` [Compound I-277], the IC50 is 10 to 50 µM on KAT-8, less than 10 µM on KAT-5 and less than 10 µM against KAT-6A.

As for `COC1CCC(CS(=O)(=O)NNC(=O)c2cc(-c3cn(C)cn3)cc(Cl)c2F)CC1` (stereo not shown) [Compound I-278], the IC50 against KAT-8 was 10 to 50 µM; against KAT-5, less than 10 µM; against KAT-6A, less than 10 µM.

`Cn1cnc(-c2cc(Cl)c(F)c(C(=O)NNS(=O)(=O)CC3CCCCO3)c2)c1` (stereo not shown) [Compound I-279]: the IC50 is 10 to 50 µM against KAT-8, less than 10 µM against KAT-5 and less than 10 µM against KAT-6A.

In the case of `CN(C(=O)OC(C)(C)C)C1CC(CS(=O)(=O)NNC(=O)c2cc(-c3cn(C)cn3)cc(Cl)c2F)C1` (stereo not shown) [Compound I-390], the half-maximal inhibitory concentration (IC50) at KAT-8 was greater than 100 µM; at KAT-5 it was less than 10 µM; against KAT-6A, 10 to 50 µM.

On to `Cn1cnc(-c2cc(Cl)c(F)c(C(=O)NNS(=O)(=O)c3cccc(O)n3)c2)c1` [Compound I-391], for which the values for the IC50 against KAT-8, against KAT-5 and at KAT-6A were 50 to 100 µM, less than 10 µM and less than 10 µM, respectively.

Consider `Cn1cnc(-c2cc(Cl)c(F)c(C(=O)NNS(=O)(=O)c3cccc(N)n3)c2)c1` [Compound I-392], for which the IC50 against KAT-8 is greater than 100 µM; on KAT-5, less than 10 µM; against KAT-6A it was less than 10 µM.

As for `Cn1cnc(-c2cc(Cl)c(F)c(C(=O)NNS(=O)(=O)c3cccc(NCc4ccccc4)n3)c2)c1` [Compound I-393], the values for the IC50 at KAT-8, against KAT-5 and against KAT-6A were greater than 100 µM, less than 10 µM and less than 10 µM, respectively.

Turning to `CN(CCOc1ccc(S(=O)(=O)NNC(=O)c2cc(-c3cn(C)cn3)cc(Cl)c2F)cc1)C(=O)OC(C)(C)C` [Compound I-394], the IC50 on KAT-8 was greater than 100 µM; at KAT-5 it was 10 to 50 µM; at KAT-6A, 10 to 50 µM.

With `CNC1CC(CS(=O)(=O)NNC(=O)c2cc(-c3cn(C)cn3)cc(Cl)c2F)C1` (stereo not shown) [Compound I-395], the IC50 against KAT-8 was greater than 100 µM; against KAT-5 it was 10 to 50 µM; on KAT-6A, 10 to 50 µM.

In the case of `Cn1cnc(-c2cc(Cl)c(F)c(C(=O)NNS(=O)(=O)CC3CCC(C)(C)CC3)c2)c1` [Compound I-396], the values for the IC50 at KAT-8, on KAT-5 and against KAT-6A were 10 to 50 µM, less than 10 µM and less than 10 µM, respectively.

Regarding `COc1ccc(COc2cccc(S(=O)(=O)NNC(=O)c3cc(-c4cn(C)cn4)cc(Cl)c3F)c2)cc1` [Compound I-397], the IC50 against KAT-8 is greater than 100 µM.

Values taken from patent US11685732B2, “MYST family histone acetyltransferase inhibitors” (Epizyme, Inc., priority 2017, dated 2023).
